# Measured values reported in the supplement of paper PMC10307832.
# What was measured:
# Experiment in all cases: relative viability (nuclei count vs DMSO), 5 days (fraction); higher = more cells survive
# LU99A = tested on: LU99A
# Outline: (§1)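 Five library-drug doses in √10 steps were combined with a fixed anchor-drug dose, or a single drug was given alone, by pin tool to lung cancer cell lines in 1536-well plates the day after seeding. Nuclei were stained and counted after 5 days. Relative viability is the nuclei count in treated wells over that in vehicle wells, taken as the median of duplicate plates.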
# NCI-H2023 = tested on: NCI-H2023
# Outline: as §1
# NCI-H1651 = tested on: NCI-H1651
# Outline: as §1
# NCI-H1355 = tested on: NCI-H1355
# Outline: as §1
# HARA = tested on: HARA
# Outline: as §1
# HCC-15 = tested on: HCC-15
# Outline: as §1
# NCI-H2126 = tested on: NCI-H2126
# Outline: as §1
# UMC-11 = tested on: UMC-11
# Outline: as §1
# NCI-H1993 = tested on: NCI-H1993
# Outline: as §1
# PC-14 = tested on: PC-14
# Outline: as §1
# NCI-H650 = tested on: NCI-H650
# Outline: as §1
# NCI-H1915 = tested on: NCI-H1915
# Outline: as §1
# LC-2-ad = tested on: LC-2-ad
# Outline: as §1
# EPLC-272H = tested on: EPLC-272H
# Outline: as §1
# HOP-62 = tested on: HOP-62
# Outline: as §1
# NCI-H2085 = tested on: NCI-H2085
# Outline: as §1
# HCC-44 = tested on: HCC-44
# Outline: as §1
# NCI-H838 = tested on: NCI-H838
# Outline: as §1
# SW 1573 = tested on: SW 1573
# Outline: as §1
# COR-L23 = tested on: COR-L23
# Outline: as §1
# NCI-H2347 = tested on: NCI-H2347
# Outline: as §1
smiles,measurement,setting,value
COc1cc2nccc(Oc3ccc(NC(=O)Nc4cc(C)on4)c(Cl)c3)c2cc1OC [Tivozanib] + Nc1nc2[nH]cc(CCc3ccc(C(=O)N[C@@H](CCC(=O)O)C(=O)O)cc3)c2c(=O)[nH]1 [Pemetrexed] (partner 0.2 µM),relative viability,LU99A; first compound 0.005 µM,0.161
same,relative viability,LU99A; first compound 0.01581 µM,0.176
same,relative viability,LU99A; first compound 0.05 µM,0.19
same,relative viability,LU99A; first compound 0.1581 µM,0.22
same,relative viability,LU99A; first compound 0.5 µM,0.193
same,relative viability,NCI-H2023; first compound 0.005 µM,0.405
same,relative viability,NCI-H2023; first compound 0.01581 µM,0.216
same,relative viability,NCI-H2023; first compound 0.05 µM,0.255
same,relative viability,NCI-H2023; first compound 0.1581 µM,0.224
same,relative viability,NCI-H2023; first compound 0.5 µM,0.211
same,relative viability,NCI-H1651; first compound 0.005 µM,0.54
same,relative viability,NCI-H1651; first compound 0.01581 µM,0.52
same,relative viability,NCI-H1651; first compound 0.05 µM,0.683
same,relative viability,NCI-H1651; first compound 0.1581 µM,0.421
same,relative viability,NCI-H1651; first compound 0.5 µM,0.574
same,relative viability,NCI-H1355; first compound 0.005 µM,1.03
same,relative viability,NCI-H1355; first compound 0.01581 µM,1.01
same,relative viability,NCI-H1355; first compound 0.05 µM,1.04
same,relative viability,NCI-H1355; first compound 0.1581 µM,0.763
same,relative viability,NCI-H1355; first compound 0.5 µM,1.07
same,relative viability,HARA; first compound 0.005 µM,0.275
same,relative viability,HARA; first compound 0.01581 µM,0.259
same,relative viability,HARA; first compound 0.05 µM,0.249
same,relative viability,HARA; first compound 0.1581 µM,0.243
same,relative viability,HARA; first compound 0.5 µM,0.245
same,relative viability,HCC-15; first compound 0.005 µM,0.21
same,relative viability,HCC-15; first compound 0.01581 µM,0.224
same,relative viability,HCC-15; first compound 0.05 µM,0.235
same,relative viability,HCC-15; first compound 0.1581 µM,0.226
same,relative viability,HCC-15; first compound 0.5 µM,0.238
same,relative viability,NCI-H2126; first compound 0.005 µM,0.692
same,relative viability,NCI-H2126; first compound 0.01581 µM,0.684
same,relative viability,NCI-H2126; first compound 0.05 µM,0.691
same,relative viability,NCI-H2126; first compound 0.1581 µM,0.582
same,relative viability,NCI-H2126; first compound 0.5 µM,0.589
same,relative viability,UMC-11; first compound 0.005 µM,0.807
same,relative viability,UMC-11; first compound 0.01581 µM,0.698
same,relative viability,UMC-11; first compound 0.05 µM,0.718
same,relative viability,UMC-11; first compound 0.1581 µM,0.619
same,relative viability,UMC-11; first compound 0.5 µM,0.755
same,relative viability,NCI-H1993; first compound 0.005 µM,0.572
same,relative viability,NCI-H1993; first compound 0.01581 µM,0.467
same,relative viability,NCI-H1993; first compound 0.05 µM,0.674
same,relative viability,NCI-H1993; first compound 0.1581 µM,0.499
same,relative viability,NCI-H1993; first compound 0.5 µM,0.662
same,relative viability,PC-14; first compound 0.005 µM,0.124
same,relative viability,PC-14; first compound 0.01581 µM,0.138
same,relative viability,PC-14; first compound 0.05 µM,0.129
same,relative viability,PC-14; first compound 0.1581 µM,0.155
same,relative viability,PC-14; first compound 0.5 µM,0.115
same,relative viability,NCI-H650; first compound 0.005 µM,0.892
same,relative viability,NCI-H650; first compound 0.01581 µM,0.98
same,relative viability,NCI-H650; first compound 0.05 µM,0.879
same,relative viability,NCI-H650; first compound 0.1581 µM,0.679
same,relative viability,NCI-H650; first compound 0.5 µM,0.734
same,relative viability,NCI-H1915; first compound 0.005 µM,0.518
same,relative viability,NCI-H1915; first compound 0.01581 µM,0.467
same,relative viability,NCI-H1915; first compound 0.05 µM,0.504
same,relative viability,NCI-H1915; first compound 0.1581 µM,0.468
same,relative viability,NCI-H1915; first compound 0.5 µM,0.46
same,relative viability,LC-2-ad; first compound 0.005 µM,0.245
same,relative viability,LC-2-ad; first compound 0.01581 µM,0.289
same,relative viability,LC-2-ad; first compound 0.05 µM,0.274
same,relative viability,LC-2-ad; first compound 0.1581 µM,0.286
same,relative viability,LC-2-ad; first compound 0.5 µM,0.245
same,relative viability,EPLC-272H; first compound 0.005 µM,0.337
same,relative viability,EPLC-272H; first compound 0.01581 µM,0.317
same,relative viability,EPLC-272H; first compound 0.05 µM,0.335
same,relative viability,EPLC-272H; first compound 0.1581 µM,0.284
same,relative viability,EPLC-272H; first compound 0.5 µM,0.288
same,relative viability,HOP-62; first compound 0.005 µM,0.353
same,relative viability,HOP-62; first compound 0.01581 µM,0.301
same,relative viability,HOP-62; first compound 0.05 µM,0.245
same,relative viability,HOP-62; first compound 0.1581 µM,0.36
same,relative viability,HOP-62; first compound 0.5 µM,0.232
same,relative viability,NCI-H2085; first compound 0.005 µM,0.925
same,relative viability,NCI-H2085; first compound 0.01581 µM,0.964
same,relative viability,NCI-H2085; first compound 0.05 µM,0.872
same,relative viability,NCI-H2085; first compound 0.1581 µM,0.9
same,relative viability,NCI-H2085; first compound 0.5 µM,0.899
same,relative viability,HCC-44; first compound 0.005 µM,0.651
same,relative viability,HCC-44; first compound 0.01581 µM,0.62
same,relative viability,HCC-44; first compound 0.05 µM,0.687
same,relative viability,HCC-44; first compound 0.1581 µM,0.802
same,relative viability,HCC-44; first compound 0.5 µM,0.627
same,relative viability,NCI-H838; first compound 0.005 µM,0.242
same,relative viability,NCI-H838; first compound 0.01581 µM,0.253
same,relative viability,NCI-H838; first compound 0.05 µM,0.252
same,relative viability,NCI-H838; first compound 0.1581 µM,0.257
same,relative viability,NCI-H838; first compound 0.5 µM,0.22
same,relative viability,SW 1573; first compound 0.005 µM,0.761
same,relative viability,SW 1573; first compound 0.01581 µM,0.766
same,relative viability,SW 1573; first compound 0.05 µM,0.805
same,relative viability,SW 1573; first compound 0.1581 µM,0.666
same,relative viability,SW 1573; first compound 0.5 µM,0.775
same,relative viability,COR-L23; first compound 0.005 µM,0.193
same,relative viability,COR-L23; first compound 0.01581 µM,0.192
same,relative viability,COR-L23; first compound 0.05 µM,0.203
same,relative viability,COR-L23; first compound 0.1581 µM,0.206
same,relative viability,COR-L23; first compound 0.5 µM,0.199
same,relative viability,NCI-H2347; first compound 0.005 µM,0.4
same,relative viability,NCI-H2347; first compound 0.01581 µM,0.458
same,relative viability,NCI-H2347; first compound 0.05 µM,0.388
same,relative viability,NCI-H2347; first compound 0.1581 µM,0.427
same,relative viability,NCI-H2347; first compound 0.5 µM,0.487
